Data on eleven compounds can be found in patent US5910498A, “Pyridonecarboxylic acid derivatives or salts thereof and antibacterial agents comprising the same as active ingredient” (Wakunaga Seiyaku Kabushiki Kaisha, priority 1994, dated 1999).

Molecules are shown by their SMILES. Converted amounts (≈) assume the structure as drawn.

For data set [1], the system named is P. aeruginosa IFO3445. Nature of the data set: Antibacterial action, MIC against P. aeruginosa IFO3445 (standard method of the Japanese Chemotherapy Society). Particulars: Pseudomonas aeruginosa, read-out: minimum growth-inhibition concentration (MIC). The format is cell-based. On the procedure: (§1) A minimum growth-inhibition concentration (MIC: μg/ml) was measured according to the standard method of the Japanese Chemotherapy Society (CHEMOTHERAPY, 29 (1), 76, 1981).

The test system of data set [2] is female ICR mouse. Nature of the data set: Phototoxicity test, ear abnormality after UV irradiation. The class given is in vivo. Particulars: 40 mg/kg i.v., UV 320-400 nm 4 hours; for Frequency (ear abnormality), 0 hour / Frequency (ear abnormality), 24 hours / Frequency (ear abnormality), 48 hours: affected/total mice; for Rating (ear abnormality), 0 hour / Rating (ear abnormality), 24 hours / Rating (ear abnormality), 48 hours: point 0 no abnormality, 1 light, 2 medium erythema, 3 heavy erythema or edema. The procedure: After a compound to be tested (40 mg/kg/10 ml) was intravenously administered to a female ICR mouse (5-6 weeks old), ultraviolet radiation (320 to 400 nm, 1.8 mW/cm^2 /sec.) was irradiated for 4 hours. […] Ear abnormality was rated point 0 for no abnormality, point 1 for light erythema, point 2 for medium erythema, and point 3 for heavy erythema or edema.

Data set [3] relates to S. aureus 209P. In words: Antibacterial action, MIC against S. aureus 209P (standard method of the Japanese Chemotherapy Society). The class given is cell-based. Particulars: Staphylococcus aureus, read-out: minimum growth-inhibition concentration (MIC). On the procedure:
as §1

Data set [4] concerns CHL cells. In words: Chromosomal aberration test, CHL cells. The format is cell-based. As to conditions: 0 to 200 μg/ml; metabolic activation method (S9) and direct method 24 and 48 hours. The procedure:
CHL cells (0.2 to 2×10^5 cells/well) suspended in an Eagle's MEM medium having 10% bovine fetal serum added thereto were incubated in a 60-mm dish. After the cells were cultured at 37° C. for 4 to 72 hours in the presence of 5% CO2, the medium was replaced by a medium containing an agent in a different concentration and culturing was continued under the same conditions. In the case of a metabolic activation method (S9 added medium), after 6 hours of culturing, the medium was replaced by a medium free of an agent and S9 and culturing was continued for a further 18 hours. In the case of a direct method, the cells were cultured in two ways for 24 hours and 48 hours. At the end of culturing, a chromosome sample was prepared according to the method prescribed by the Japan Surrounding Mutagen society.

`Nc1cc(-n2cc(C(=O)O)c(=O)c3cc(F)c(N4CC(N)C4)c(F)c32)c(F)cc1F` [Example 150, 7-(3-aminoazetidin-1-yl)-1-(3-amino-4,6-difluorophenyl)-6,8-difluoro-1,4-dihydro-4-oxoquinoline-3-carboxylic acid]: in data set [1], the MIC came to 0.2 µg/mL (≈ 0.474 µM). Moreover, in data set [2], the “Frequency (ear abnormality), 0 hour” value is listed as 0/3; the “Rating (ear abnormality), 0 hour” value amounted to 0; the “Frequency (ear abnormality), 24 hours” value was 0/3; the “Rating (ear abnormality), 24 hours” value stood at 0. In addition, in data set [2], the “Frequency (ear abnormality), 48 hours” value was 0/3 and the “Rating (ear abnormality), 48 hours” value turned out to be 0. In data set [3], the MIC stood at 0.025 µg/mL (≈ 0.0592 µM).

For the compound `C[C@@H]1CN(c2nc3c(cc2F)c(=O)c(C(=O)O)cn3-c2cc(N)c(F)cc2F)C[C@H]1N` [Example 56, 1-(3-amino-4,6-difluorophenyl)-7-[(3S,4R)-3-amino-4-methylpyrrolidin-1-yl]-6-fluoro-1,4-dihydro-4-oxo-1,8-naphthyridine-3-carboxylic acid], the MIC was found to be 0.1 µg/mL (≈ 0.231 µM) in data set [1] and 0.025 µg/mL (≈ 0.0577 µM) in data set [3].

`Nc1cc(-n2cc(C(=O)O)c(=O)c3cc(F)c(N4CC[C@H](N)C4)cc32)c(F)cc1F` [Example 60, 1-(3-amino-4,6-difluorophenyl)-7-[(3S)-3-aminopyrrolidin-1-yl]-6-fluoro-1,4-dihydro-4-oxoquinoline-3-carboxylic acid]: the MIC is 0.1 µg/mL (≈ 0.239 µM) in data set [1] and 0.013 µg/mL (≈ 0.0311 µM) in data set [3].

In the case of `CNC1CN(c2c(F)cc3c(=O)c(C(=O)O)cn(-c4cc(N)c(F)cc4F)c3c2Cl)C1` [Example 157, 1-(3-amino-4,6-difluorophenyl)-8-chloro-6-fluoro-7-(3-methylaminoazetidin-1-yl)-1,4-dihydro-4-oxoquinoline-3-carboxylic acid], the MIC in data set [1] is 0.1 µg/mL (≈ 0.221 µM); in data set [3], less than 0.013 µg/mL.

In the case of `Nc1cc(-n2cc(C(=O)O)c(=O)c3cc(F)c(N4CC(N)C4)c(Cl)c32)c(F)cc1F` [Example 152, 7-(3-aminoazetidin-1-yl)-1-(3-amino-4,6-difluorophenyl)-8-chloro-6-fluoro-1,4-dihydro-4-oxoquinoline-3-carboxylic acid], the MIC in data set [1] is 0.05 µg/mL (≈ 0.114 µM). For the same compound, in data set [2], the “Frequency (ear abnormality), 0 hour” value is listed as 0/3; the “Rating (ear abnormality), 0 hour” value was determined as 0; the “Frequency (ear abnormality), 24 hours” value is listed as 0/3; the “Rating (ear abnormality), 24 hours” value was found to be 0. Moreover, in data set [2], the “Frequency (ear abnormality), 48 hours” value is on record as 0/3 and the “Rating (ear abnormality), 48 hours” value is reported as 0. Further, in data set [3], the MIC is less than 0.013 µg/mL.

As to `Nc1cc(-n2cc(C(=O)O)c(=O)c3cc(F)c(N4CC[C@H](N)C4)nc32)c(F)cc1F` [Example 48, 1-(3-amino-4,6-difluorophenyl)-7-[(3S)-3-aminopyrrolidin-1-yl]-6-fluoro-1,4-dihydro-4-oxo-1,8-naphthyridine-3-carboxylic acid], the MIC in data set [1] amounted to 0.1 µg/mL (≈ 0.238 µM). In addition, the “Chromosomal aberration (rate of structural aberration)” value in data set [4] is “negative”. In data set [2], the “Frequency (ear abnormality), 0 hour” value was 0/3; the “Rating (ear abnormality), 0 hour” value worked out at 0; the “Frequency (ear abnormality), 24 hours” value was 0/3; the “Rating (ear abnormality), 24 hours” value is 0. Besides, in data set [2], the “Frequency (ear abnormality), 48 hours” value was 0/3 and the “Rating (ear abnormality), 48 hours” value is recorded as 0. For the same compound, the MIC in data set [3] is 0.025 µg/mL (≈ 0.0596 µM).

With `Nc1cc(-n2cc(C(=O)O)c(=O)c3cc(F)c(N4CC(N)C4)nc32)c(F)cc1F` [Example 117, 7-(3-aminoazetidin-1-yl)-1-(3-amino-4,6-difluorophenyl)-6-fluoro-1,4-dihydro-4-oxo-1,8-naphthyridine-3-carboxylic acid], the MIC in data set [1] worked out at 0.1 µg/mL (≈ 0.247 µM). In addition, the “Chromosomal aberration (rate of structural aberration)” value in data set [4] is recorded as “negative”. In data set [2], the “Frequency (ear abnormality), 0 hour” value was 0/3; the “Rating (ear abnormality), 0 hour” value was 0; the “Frequency (ear abnormality), 24 hours” value is 0/3; the “Rating (ear abnormality), 24 hours” value is recorded as 0. For the same compound, in data set [2], the “Frequency (ear abnormality), 48 hours” value is reported as 0/3 and the “Rating (ear abnormality), 48 hours” value turned out to be 0. For the same compound, in data set [3], the MIC came out at 0.05 µg/mL (≈ 0.123 µM).

Turning to `NC1CCN(c2nc3c(cc2F)c(=O)c(C(=O)O)cn3-c2ccc(F)cc2F)C1` (stereo not drawn) [tosufloxacin, reference compound], the MIC in data set [1] was found to be 0.39 µg/mL (≈ 0.965 µM). Moreover, in data set [2], the “Frequency (ear abnormality), 0 hour” value is reported as 4/5; the “Rating (ear abnormality), 0 hour” value was determined as 1.8; the “Frequency (ear abnormality), 24 hours” value is listed as 4/5; the “Rating (ear abnormality), 24 hours” value turned out to be 0.8. In data set [2], the “Frequency (ear abnormality), 48 hours” value is on record as 1/5 and the “Rating (ear abnormality), 48 hours” value is on record as 0.2. In addition, the MIC in data set [3] is 0.05 µg/mL (≈ 0.124 µM).

Regarding `CC1(N)CN(c2c(F)cc3c(=O)c(C(=O)O)cn(-c4cc(N)c(F)cc4F)c3c2Cl)C1` [Example 156, 1-(3-amino-4,6-difluorophenyl)-7-(3-amino-3-methylazetidin-1-yl)-8-chloro-6-fluoro-1,4-dihydro-4-oxoquinoline-3-carboxylic acid], the MIC in data set [1] was 0.1 µg/mL (≈ 0.221 µM); in data set [3] it was less than 0.013 µg/mL.

`Cc1c(F)c(N2CC[C@H](N)C2)cc2c1c(=O)c(C(=O)O)cn2-c1cc(N)c(F)cc1F` [Example 162, 1-(3-amino-4,6-difluorophenyl)-7-[(3S)-3-aminopyrrolidin-1-yl]-6-fluoro-5-methyl-1,4-dihydro-4-oxoquinoline-3-carboxylic acid]: the MIC in data set [1] stood at 0.2 µg/mL (≈ 0.463 µM); in data set [3] it was 0.013 µg/mL (≈ 0.0301 µM).

With `Nc1cc(-n2cc(C(=O)O)c(=O)c3c(O)c(F)c(N4CC[C@H](N)C4)cc32)c(F)cc1F` [Example 160, 1-(3-amino-4,6-difluorophenyl)-7-[(3S)-3-aminopyrrolidin-1-yl]-6-fluoro-5-hydroxy-1,4-dihydro-4-oxoquinoline-3-carboxylic acid], in data set [1], the MIC worked out at 0.2 µg/mL (≈ 0.46 µM). Also, in data set [2], the “Frequency (ear abnormality), 0 hour” value is on record as 0/3; the “Rating (ear abnormality), 0 hour” value turned out to be 0; the “Frequency (ear abnormality), 24 hours” value was 0/3; the “Rating (ear abnormality), 24 hours” value is given as 0. In data set [2], the “Frequency (ear abnormality), 48 hours” value was 0/3 and the “Rating (ear abnormality), 48 hours” value stood at 0. The MIC in data set [3] was 0.025 µg/mL (≈ 0.0576 µM).
